The results in this text go back to PubChem BioAssay AID328 (DTP/NCI, 2004).

Each structure is given as a SMILES string. “And” between values parts separate entries of the source, which are not always exact repeats. Equal values may be shown once. Toxic doses and inconclusive results are not listed.

The test relates to BDF1 mice, P388 leukemia ip, median survival T/C. The test is described as follows: NCI In Vivo Anticancer Drug Screen. Data for tumor model P388 Leukemia (intraperitoneal) in B6D2F1 (BDF1) mice. Conditions: endpoint: median survival time, higher = longer survival. In a few lines: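 Read-out is survival of treated animals expressed relative to the vehicle group, as a T/C ratio.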

[1] abbreviates: dose: 12.5 mg/kg/injection, schedule: Q01DX009 (ip), vehicle: saline with Tween-80.
The mark [2] stands for this setting: dose: 25.0 mg/kg/injection, schedule: Q01DX009 (ip), vehicle: saline with Tween-80.
The mark [3] stands for this setting: dose: 50.0 mg/kg/injection, schedule: Q01DX009 (ip), vehicle: saline with Tween-80.
Setting [4] is: dose: 12.5 mg/kg/injection, schedule: Q01DX009 (ip), vehicle: Klucel (hydroxypropylcellulose) (HPC).
The mark [5] stands for this setting: dose: 25.0 mg/kg/injection, schedule: Q01DX009 (ip), vehicle: Klucel (hydroxypropylcellulose) (HPC).
Where [6] appears, read: dose: 50.0 mg/kg/injection, schedule: Q01DX009 (ip), vehicle: Klucel (hydroxypropylcellulose) (HPC).
[7] abbreviates: dose: 100.0 mg/kg/injection, schedule: Q01DX009 (ip), vehicle: saline with Tween-80.
Where [8] appears, read: dose: 200.0 mg/kg/injection, schedule: Q01DX009 (ip), vehicle: saline with Tween-80.
[9] abbreviates: dose: 100.0 mg/kg/injection, schedule: Q04DX003 (ip), vehicle: saline.
[10] abbreviates: dose: 200.0 mg/kg/injection, schedule: Q04DX003 (ip), vehicle: saline.
Setting [11] is: dose: 400.0 mg/kg/injection, schedule: Q04DX003 (ip), vehicle: saline.
Setting [12] is: dose: 100.0 mg/kg/injection, schedule: Q04DX003 (ip), vehicle: saline with Tween-80.
Where [13] appears, read: dose: 200.0 mg/kg/injection, schedule: Q04DX003 (ip), vehicle: saline with Tween-80.
Setting [14] is: dose: 400.0 mg/kg/injection, schedule: Q04DX003 (ip), vehicle: saline with Tween-80.
[15] abbreviates: dose: 200.0 mg/kg/injection, schedule: Q01DX001 (ip), vehicle: saline.

Consider `CCCCCCCCCCCCCC[N+](C)(C)CC(=O)O`, for which the T/C reads like this: under setting [1], 103 % of control; under setting [2], 106 % of control; under setting [3], 113 % of control.

As for `Clc1nc2nc(C(Cl)(Cl)Cl)[nH]c2nc1Cl`, the T/C reads like this: under setting [4], 95 % of control; under setting [5], 108 % of control; under setting [6], 116 % of control.

For the molecule `Cc1ccc(NC(=O)NCC2(C)CC(NC(=O)Nc3ccc(C)cc3)CC(C)(C)C2)cc1` (stereo unspecified), the T/C is, setting by setting: under setting [4], 100 % of control; under setting [5], 100 % of control; under setting [6], 100 % of control; (dose: 75.0 mg/kg/injection, schedule: Q01DX009 (ip), vehicle: Klucel (hydroxypropylcellulose) (HPC)) 90 % of control; (dose: 115.0 mg/kg/injection, schedule: Q01DX009 (ip), vehicle: Klucel (hydroxypropylcellulose) (HPC)) 90 % of control; (dose: 170.0 mg/kg/injection, schedule: Q01DX009 (ip), vehicle: Klucel (hydroxypropylcellulose) (HPC)) 90 % of control.

`CSCCC1NC(=O)C(/C(C)=N\NC(N)=O)=C1O` (stereo unspecified): the T/C was 108 % of control under setting [3], 115 % of control under setting [7] and 92 % of control under setting [8].

Regarding `O=C(COCc1ccccc1)OCc1ccccc1`, the T/C is, setting by setting: under setting [9], 109 % of control; under setting [10], 104 % of control; under setting [11], 113 % of control.

On to `OC1C2CC3C1C3C2O` (stereo unspecified), for which the T/C is 86 % of control under setting [12], 100 % of control under setting [13] and 104 % of control under setting [14].

`O=C(O)c1ccccc1C(=O)Nc1cc(C(F)(F)F)ccc1Cl`: the T/C runs as follows: under setting [12], 90 % of control; under setting [13], 104 % of control; under setting [14], 118 % of control.

In the case of `CNC(=S)NN`, the T/C under setting [9] was 100 % of control, the T/C under setting [15] was 100 % of control, the T/C under setting [10] was 90 % of control and the T/C under setting [11] was 100 % of control.

Consider `CCOC(=O)C(CC)(CCC(C)C)C(=O)OCC`, for which the T/C was 95 % of control under setting [2], 95 % of control under setting [3] and 100 % of control under setting [7].

`O=Cc1[nH]c(=S)[nH]c(=O)c1Cc1ccc([N+](=O)[O-])cc1`: the T/C is, setting by setting: under setting [12], 100 % of control; under setting [13], 95 % of control; under setting [14], 112 % of control.

As to `CC(C)C(=O)OCC1OC(n2cnc3c(=S)nc(N)[nH]c32)C(OC(=O)C(C)C)C1OC(=O)C(C)C` (stereo unspecified), the T/C under setting [5] is 92 % of control.

Take `CC(C)(C)c1cc(C(C)(C)c2ccccc2)cc(Cc2cc(C(C)(C)c3ccccc3)cc(C(C)(C)C)c2O)c1O`: the T/C is 118 % of control (dose: 50.0 mg/kg/injection, schedule: Q01DX009 (ip), vehicle: saline + Tween-80 + alcohol); 96 % of control under setting [3]; 90 % of control (dose: 100.0 mg/kg/injection, schedule: Q01DX009 (ip), vehicle: saline + Tween-80 + alcohol); 100 % of control under setting [7]; 115 % of control (dose: 200.0 mg/kg/injection, schedule: Q01DX009 (ip), vehicle: saline + Tween-80 + alcohol); 124 % of control under setting [8]. The T/C (dose: 400.0 mg/kg/injection, schedule: Q01DX009 (ip), vehicle: saline + Tween-80 + alcohol) is 107 % of control.

For the molecule `COC1C(OC(=O)c2ccc(C)[nH]2)C(O)C(Oc2ccc3c(O)c(NC(=O)c4ccc(O)c(CC=C(C)C)c4)c(=O)oc3c2Cl)OC1(C)C` (stereo unspecified), the T/C is 106 % of control (dose: 50.0 mg/kg/injection, schedule: Q01DX009 (ip), vehicle: other); 104 % of control (dose: 100.0 mg/kg/injection, schedule: Q01DX009 (ip), vehicle: other); 115 % of control (dose: 200.0 mg/kg/injection, schedule: Q01DX009 (ip), vehicle: other).

For `COC(=O)CCc1c[nH]c2ccc(N(CCCl)CCCl)cc12`, the T/C by setting is: (dose: 0.03 mg/kg/injection, schedule: Q04DX003 (ip), vehicle: saline with Tween-80) 105 % of control; (dose: 0.04 mg/kg/injection, schedule: Q01DX009 (ip), vehicle: saline with Tween-80) 122 % of control; (dose: 0.1 mg/kg/injection, schedule: Q01DX009 (ip), vehicle: saline with Tween-80) 154 % of control and 163 % of control; (dose: 0.16 mg/kg/injection, schedule: Q04DX003 (ip), vehicle: saline with Tween-80) 113 % of control; (dose: 0.2 mg/kg/injection, schedule: Q01DX009 (ip), vehicle: saline with Tween-80) 172 % of control; (dose: 0.25 mg/kg/injection, schedule: Q04DX003 (ip), vehicle: saline with Tween-80) 166 % of control. Besides, the T/C is, setting by setting: (dose: 0.3 mg/kg/injection, schedule: Q01DX009 (ip), vehicle: saline with Tween-80) 155 % of control and 181 % of control; (dose: 0.5 mg/kg/injection, schedule: Q04DX003 (ip), vehicle: saline with Tween-80) 170 % of control; (dose: 0.63 mg/kg/injection, schedule: Q04DX003 (ip), vehicle: saline with Tween-80) 113 % of control; (dose: 0.8 mg/kg/injection, schedule: Q01DX009 (ip), vehicle: saline with Tween-80) 166 % of control; (dose: 1.0 mg/kg/injection, schedule: Q04DX003 (ip), vehicle: saline with Tween-80) 241 % of control; (dose: 1.25 mg/kg/injection, schedule: Q01DX009 (ip), vehicle: saline with Tween-80) 196 % of control and 212 % of control. For the same molecule, the T/C reads like this: (dose: 1.3 mg/kg/injection, schedule: Q04DX003 (ip), vehicle: saline with Tween-80) 205 % of control; (dose: 2.0 mg/kg/injection, schedule: Q04DX003 (ip), vehicle: saline with Tween-80) 265 % of control and 217 % of control; (dose: 2.5 mg/kg/injection, schedule: Q01DX009 (ip), vehicle: saline with Tween-80) 250 % of control; (dose: 3.0 mg/kg/injection, schedule: Q04DX003 (ip), vehicle: saline with Tween-80) 260 % of control and 290 % of control; (dose: 4.4 mg/kg/injection, schedule: Q04DX003 (ip), vehicle: saline with Tween-80) 280 % of control and 300 % of control; (dose: 4.5 mg/kg/injection, schedule: Q04DX003 (ip), vehicle: saline with Tween-80) 260 % of control. Further, the T/C (dose: 6.7 mg/kg/injection, schedule: Q04DX003 (ip), vehicle: saline with Tween-80) was 300 % of control; the T/C (dose: 6.75 mg/kg/injection, schedule: Q04DX003 (ip), vehicle: saline with Tween-80) is 260 % of control; the T/C (dose: 10.0 mg/kg/injection, schedule: Q04DX003 (ip), vehicle: saline with Tween-80) was 200 % of control; the T/C (dose: 15.0 mg/kg/injection, schedule: Q04DX003 (ip), vehicle: saline with Tween-80) is 120 % of control; the T/C (dose: 40.0 mg/kg/injection, schedule: Q04DX003 (ip), vehicle: saline with Tween-80) was 272 % of control.

Take `CC(C)=CCC/C(C)=C\C=N\NS(=O)(=O)c1ccc([N+](=O)[O-])cc1`: the T/C reads like this: (dose: 6.25 mg/kg/injection, schedule: Q01DX009 (ip), vehicle: saline with Tween-80) 99 % of control; under setting [1], 103 % of control; under setting [2], 103 % of control.

Turning to `O=C(CCCCN1CCc2[nH]c3ccc(F)cc3c2C1)c1ccc(F)cc1`, the T/C by setting is: (dose: 100.0 mg/kg/injection, schedule: Q01DX001 (ip), vehicle: Klucel (hydroxypropylcellulose) (HPC)) 116 % of control; (dose: 200.0 mg/kg/injection, schedule: Q01DX001 (ip), vehicle: Klucel (hydroxypropylcellulose) (HPC)) 100 % of control.

`NOCc1c(F)c(F)c(F)c(F)c1F`: the T/C is 113 % of control (dose: 50.0 mg/kg/injection, schedule: Q01DX001 (ip), vehicle: saline); 104 % of control (dose: 100.0 mg/kg/injection, schedule: Q01DX001 (ip), vehicle: saline); 95 % of control under setting [15].
